Measured values from patent publication US12016906B2, “Pharmaceutical composition for anaemia” (Frimline Private Limited, priority 2018, dated 2024).

Legend:
Format in all cases: in vivo, male Wistar rats (Rat Rattus)
[1] = tested on: Iron deficient Diet (IDD) induced anaemia in rats; assay: Hematocrit % level in IDD induced anaemia in rats; design: Hematocrit % Change compared to Disease control: concentration or dose not given beside the values; conditions: IDD rats; for Hematocrit Pre-treatment: Day 35, before treatment; for Hematocrit Post-treatment: Day 98, after 9 weeks of treatment p.o.; for Hematocrit % Change compared to Disease control: Day 98
Protocol: (§1) Screening of pharmaceutical composition/formulation comprising combination of Lactoferrin+Guanosine Nucleotide or a pharmaceutically acceptable salt thereof with or without optional ingredients against Iron deficient Diet (IDD) induced anaemia in rats. For this study different parameters like Hb Level, Hematocrit level, Serum Iron level, Ferroportin level, Serum Ferritin level, Hepcidin level and IL-6 Level were evaluated. The following trials were carried out by taking reference from Wang Xl, Liu S, Xu H, Yan W, Effects of recombinant human lactoferrin on improving the iron status of IDA. Wei Sheng Yan Jiu. 2012 January; 41(1):13-7, 22 and Nora M. El-Sheikh, the Protective Effect of Soybean and Thyme on Iron Deficiency Anemia in Rats, the Egyptian Journal of Hospital Medicine (2008) Vol., 33: 510-520 as available.
(§2) 72 male Wistar rats (Rat Rattus) (6 per group) were maintained in animal house in a light/dark atmosphere based on a 12 hour cycle having temperature and relative humidity in the range of 22±3° C. and 30-70% respectively. To maintain the appropriate conditions, temperature and relative humidity were recorded three times daily. All animals were acclimatized for a minimum period of five days. Animals were maintained in the test setup for minimum 30 minutes once during the acclimatization period to reduce the stress. Animals were weighed on the day of receipt and observed daily for abnormalities if any. Detailed records of acclimatization were also maintained. Rats were housed 6 per cage in clean, sterilized Polypropylene cages. During complete experiment, animals were supplied with the standard certified rat pellet feed (manufactured by Keval sales corporation, Vadodara) and drinking water treated by the reverse osmosis ad libitum. Analysis reports for microbial load and contaminants in feed and water and nutrient content of feed were also retained.
(§3) In order to evaluate the activity against IDD induced anaemia, seventy two (72) rats were screened and divided in to twelve groups. For a comparative analysis, groups were divided as normal control (Group 1), disease control (Group 2), treatment groups with individual components (Group 3, Group 4, Group 5, Group 6 and Group 7 as Lactoferrin, Disodium Guanosine monophosphate (GMP), Guanosine diphosphate (GDP), Guanosine triphosphate (GTP) and Vitamin C respectively), test composition/formulation of the present invention (Group 8 as combination of Lactoferrin Disodium GMP, Group 9 as combination of Lactoferrin GDP, Group 10 as combination of Lactoferrin+GTP, […] as combination of Lactoferrin+Disodium GMP+Vitamin C) and reference standard drug (Group 12). Table 1 provides the details of the various groups and treatments conducted in the trial wherein group no. G3 to G12 are treatment groups.
(§4) Group nos. 2 to 12 animals under consideration were administered IDD (3 mg Fe/Kg of diet) for the period of 3 weeks, while group 1 animal received Normal pellet diet (35 mg Fe/Kg of diet).
(§5) After 3 weeks of respective dietary intervention, the level of Hemoglobin was determined in each animal. Looking at low increase in hemoglobin. Hematocrit % (HCT %) level and serum iron level, further dietary intervention was continued for additional two (2) weeks.
(§6) After 5 weeks (35 days) of respective dietary intervention, once again hemoglobin level, HCT % level and serum iron level were analyzed and then, respective drug treatment was started with continuous administration of Iron deficient diets in all groups as mentioned above in Table 1.
(§7) After 9 weeks of respective drug treatment (total after 14 weeks from start of the study—98 days), various biochemical parameters were measured to evaluate the effect of respective individual and combination therapy on iron deficient anaemia model (G3 to G12).
(§8) • A. Clinical observations (Daily) • B. Mortality (Daily) • C. […]

[2] = tested on: Iron deficient Diet (IDD) induced anaemia in rats; assay: Hb level in IDD induced anaemia in rats; design: Hemoglobin % Change compared to Disease control: concentration or dose not given beside the values; conditions: IDD rats; for Hemoglobin Pre-treatment: Day 35, before treatment; for Hemoglobin Post-treatment: Day 98, after 9 weeks of treatment p.o.; for Hemoglobin % Change compared to Disease control: Day 98
Protocol: as §1, with “Jiu.” for “Jiu. 2012 January; 41(1):13-7, 22 and Nora M. El-Sheikh, the Protective Effect of Soybean and Thyme on Iron Deficiency Anemia in Rats, the Egyptian Journal of Hospital Medicine (2008) Vol., 33: 510-520 as available.”
as §2, §3
After 3 weeks of respective dietary intervention, the level of Hemoglobin was determined in each animal.
as §6, §7
(§9) • A. Clinical observations (Daily) • B. Mortality (Daily) • C. Body weight (Initially and then weekly till the end of study) • D. After 3 and 5 weeks of Iron deficient diet supplement • (i) Hematological parameters (RBC count, Hb Level, Hematocrit % MCV, MCH and MCHC). • (ii) Serum Iron Level. • E. At the end of 14 weeks of study • (i) Hematological parameters (RBC count, Hb Level, Hematocrit %, MCV, MCH and MCHC). • (ii) Biochemical parameters (Serum Iron level, Ferroportin level, Serum Ferritin level, Hepcidin level, IL-6 level).

[3] = tested on: Iron deficient Diet (IDD) induced anaemia in rats; assay: Hepcidin level in IDD induced anaemia in rats; design: Hepcidin % Change compared to Disease control: concentration or dose not given beside the values; conditions: IDD rats; for Hepcidin Post-treatment: Day 98, after 9 weeks of treatment p.o.; for Hepcidin % Change compared to Disease control: Day 98
Protocol: as §1, §2, §3, §4, §6, §7, §8

[4] = tested on: Iron deficient Diet (IDD) induced anaemia in rats; assay: IL-6 level in IDD induced anaemia in rats; conditions: IDD rats; for IL-6 Post-treatment: Day 98, after 9 weeks of treatment p.o.; for IL-6 % Change compared to Disease control: Day 98
Protocol: as §1, with “Jiu.” for “Jiu. 2012 January; 41(1):13-7, 22 and Nora M. El-Sheikh, the Protective Effect of Soybean and Thyme on Iron Deficiency Anemia in Rats, the Egyptian Journal of Hospital Medicine (2008) Vol., 33: 510-520 as available.”
as §2, §3, §6, §7
as §9, with “level). Statistical Analysis: One way ANOVA followed by Tuckey's test was performed and p value<0.05 is considered to be statistically significant. […] Hematology: (after 3 Weeks and 5 Weeks of Feed Intervention and after 9 Weeks of Treatment)” for “level).”

[5] = tested on: Iron deficient Diet (IDD) induced anaemia in rats; assay: Serum iron level in IDD induced anaemia in rats; design: Serum IRON % Change compared to Disease control: concentration or dose not given beside the values; conditions: IDD rats; for Serum IRON Pre-treatment: Day 35, before treatment; for Serum IRON Post-treatment: Day 98, after 9 weeks of treatment p.o.; for Serum IRON % Change compared to Disease control: Day 98
Protocol: as §1, §2, §3, §4, §5, §6, §7, §8

[6] = tested on: Iron deficient Diet (IDD) induced anaemia in rats; assay: Serum ferritin level in IDD induced anaemia in rats; design: Ferritin % Change compared to Disease control: concentration or dose not given beside the values; conditions: IDD rats; for Ferritin Post-treatment: Day 98, after 9 weeks of treatment p.o.; for Ferritin % Change compared to Disease control: Day 98
Protocol: as §1, §2, §3, §4, §6, §7, §8

[7] = tested on: Iron deficient Diet (IDD) induced anaemia in rats; assay: Ferroportin level in IDD induced anaemia in rats; design: Ferroportin % Change compared to Disease control: concentration or dose not given beside the values; conditions: IDD rats; for Ferroportin Post-treatment: Day 98, after 9 weeks of treatment p.o.; for Ferroportin % Change compared to Disease control: Day 98
Protocol: as §1, §2, §3, §4, §6, §7, §8

Row | Compound | Hematocrit Pre-treatment [1] [%] | Hematocrit Post-treatment [1] [%] | Hematocrit % Change compared to Disease control [1] [%] | Hemoglobin Pre-treatment [2] [g/dL] | Hemoglobin Post-treatment [2] [g/dL] | Hemoglobin % Change compared to Disease control [2] [%] | Hepcidin Post-treatment [3] [ng/mL] | Hepcidin % Change compared to Disease control [3] [%] | IL-6 Post-treatment [4] [pg/mL] | IL-6 % Change compared to Disease control [4] [%] | Serum IRON Pre-treatment [5] [ppm] | Serum IRON Post-treatment [5] [ppm] | Serum IRON % Change compared to Disease control [5] [%] | Ferritin Post-treatment [6] [ng/mL] | Ferritin % Change compared to Disease control [6] [%] | Ferroportin Post-treatment [7] [ng/mL] | Ferroportin % Change compared to Disease control [7] [%]
1 | Nc1nc2c(ncn2[C@@H]2O[C@H](COP(=O)(O)OP(=O)(O)O)[C@@H](O)[C@H]2O)c(=O)[nH]1 [GDP, Guanosine diphosphate] | 35.61 | 37.77 | 46.9 | 8.62 | 9.34 | 43.4 | 4351 | −1.1 | 62.2 | −0.3 | 3.30 | 3.99 | 49.7 | 702 | −5.1 | 3.0 | 11.1
2 | Vit C | 35.64 | 37.24 | 44.9 | 8.28 | 9.22 | 41.5 | 4267 | −3.0 | 63.4 | 1.6 | 2.76 | 3.54 | 32.7 | 689 | −6.9 | 3.1 | 12.9
3 | Nc1nc2c(ncn2[C@@H]2O[C@H](COP(=O)(O)OP(=O)(O)OP(=O)(O)O)[C@@H](O)[C@H]2O)c(=O)[nH]1 [GTP, Guanosine triphosphate] | 35.74 | 37.96 | 11.7 | 8.45 | 9.12 | 39.9 | 4392 | −0.2 | 62.2 | −0.2 | 3.03 | 3.98 | 49.2 | 698 | −5.7 | 3.0 | 9.5
4 | Nc1nc2c(ncn2[C@@H]2O[C@H](COP(=O)([O-])[O-])[C@@H](O)[C@H]2O)c(=O)[nH]1.[Na+].[Na+] [Disodium GMP, Disodium Guanosine 5-Monophosphate] |  |  |  |  |  |  | 4303 | −2.2 | 62.9 | 0.9 |  |  |  | 700 | −5.4 | 3.0 | 11.4
5 | Nc1nc2c(ncn2[C@@H]2O[C@H](COP(=O)([O-])[O-])[C@@H](O)[C@H]2O)c(=O)[nH]1.[Na+].[Na+] [Disodiurn GMP] | 35.35 | 38.89 | 51.3 | 8.54 | 9.18 | 40.8 |  |  |  |  | 2.82 | 3.43 | 28.8 |  |  |  | 
